# From US20120014956A1, “METHODS AND COMPOSITIONS FOR PREDICTING RESPONSIVENESS TO TREATMENT WITH TNF-ALPHA INHIBITOR” (priority 2010, published 2012)
# Key:
# [1] = tested on: patients with early RA; assay: OPTIMA genetic substudy: ACR20/50/70 response at Week 26; type: in vivo, human; details: for ACR50, % / ACR50, n/N: 26 weeks; for ACR20 Response Rates at Week 26 (title; column head ACR70), % subjects / ACR20 Response Rates at Week 26 (title; column head ACR70), n/N subjects: Table 6a; for ACR20 Response Rates at Week 26 (title; column head ACR70), % subjects / ACR20 Response Rates at Week 26 (title; column head ACR70), n/N subjects / ACR50 response rate, % subjects / ACR50 response, n/N subjects / ACR70 response rate, % subjects / ACR70 response, n/N subjects / ACR20 response rate, % subjects / ACR20 response, n/N subjects: Week 26
# Source text: (§1) The objective of the study was to prospectively analyze the association of 3 genetic risk factors (HLA-DRB1 shared epitope (SE), FcγRIIb, and IL-4R) for severe RA with clinical disease activity after 26 weeks of combination therapy with adalimumab (ADA) and methotrexate (MTX) or MTX monotherapy in a substudy of OPTIMA (A Multicentre, Randomized, Double Period, Double-Blind Study to Determine the Optimal Protocol for Treatment Initiation With Methotrexate and Adalimumab Combination Therapy in Patients With Early Rheumatoid Arthritis).
# (§2) OPTIMA is an ongoing 78-week study with 26- and 52-week periods. Eligible patients had RA<1 year (1987-revised ACR classification), 28-joint Disease Activity Score (DAS28)>3.2, ≧6 swollen joints […], and ≧8 tender joints (SSJC66≧8). Patients had elevated erythrocyte sedimentation rate (ESR)≧28 mm/h or C-reactive protein (CRP)≧1.5 mg/dL and ≧1 of the following: >1 erosion, rheumatoid-factor positive (RF+), or anti-cyclic citrullinated peptide antibody positive (anti-CCP+). Exclusion criteria included prior exposure to systemic anti-TNF therapies, treatment with MTX or >2 disease-modifying anti-rheumatic drugs (DMARDs), other acute inflammatory joint diseases, or steroidal or surgical treatment within 4 weeks or 2 months, respectively.
# (§3) In Period 2, those combination therapy responders, e.g., meeting DAS28 low disease activity (LDA) criteria (DAS28<3.2), were re-randomized 1:1 to remain on ADA+MTX or to “step down” to PBO+MTX for Weeks 26-78. In the initial PBO+MTX monotherapy group, subjects who achieved DAS28 LDA after Period 1 remained blinded on PBO+MTX for Period 2. […] Genetic data were associated with Week-26 clinical response.
# (§4) For clinical assessment, the percentage of subjects achieving a 20%, 50%, and 70% improvement from baseline ACR scores was determined after Week 26 using a non-responder imputation approach. DAS28(CRP)^1 scores were evaluated at Week 26. The proportion of subjects achieving LDA (DAS28<3.2) and remission criteria (DAS28<2.6) was determined using a non-responder imputation approach.
# (§5) For statistical analyses, Allele distribution between treatment groups was evaluated using the chi-square test, or Fisher's exact test in cases where data were sparse. The chi-square test was used to compare the proportion of subject achieving ACR20/50/70 and DAS28 LDA (<3.2) or remission (<2.6) within and between treatment groups.
# (§6) MTX-naïve patients were randomized 1:1 to ADA (40 mg eow)+MTX (titrated to 20 mg/wk by Week 8) or placebo (PBO)+MTX for the first 26 weeks.
# (§7) The percentage of subjects achieving a 50% improvement in the ACR score from baseline was determined at Week 26 using a non-responder imputation approach. The percentage of subjects achieving DAS28(CRP) remission (DAS28<2.6) was determined at Week 26 using a non-responder imputation approach.
# (§8) Allele distribution between treatment groups was evaluated using the chi-square test, or Fisher's exact test in cases where data were sparse. Multivariate logistic regression was used to evaluate the effect of treatment, individual alleles, the interaction between treatment and genetic components, and baseline demographics and disease characteristics on clinical responses at 26 weeks.
# (§9) MTX-naïve pts ≧18 years old with RA<1 year and active disease (DAS28>3.2, ESR≧28 mm/h or CRP≧1.5 mg/dL), and either >1 erosions, RF+, or anti-CCP+ were randomized to ADA+MTX (N=515) or PBO+MTX (N=517) for 26 wks. This analysis presents clinical outcomes at 26 weeks by HLA-DRB1 SE copy number (0×, 1×, or 2×), IL-4R I50V (AA, AG, or GG), and FcγRIIb I232T (TT, TC, CC) alleles. Non-responder imputation was used to calculate the percent of patients achieving ACR20/50/70 and DAS28 low disease activity (LDA, DAS28<3.2) and remission (DAS28<2.6). Multiple logistic regression was used to assess the influence of potential confounding baseline variables. […]
# [2] = tested on: patients with early RA; assay: OPTIMA genetic substudy: DAS28 low disease activity (<3.2) and remission (<2.6) at Week 26; type: in vivo, human
# Source text: as §1, §2, §3, §4, §5, §6, §7, §8, §9
# [3] = HLA-DRB1 SE 0 copies, non-responder imputation
compound,measurement,setting,value
"CN(Cc1cnc2nc(N)nc(N)c2n1)c1ccc(C(=O)N[C@@H](CCC(=O)O)C(=O)O)cc1 [PBO + MTX, methotrexate]","ACR50, %","[1]; IL-4R AA, HLA-DRB1 SE copy # 0",(44%)
same,"ACR50, n/N","[1]; IL-4R AA, HLA-DRB1 SE copy # 0",15/34
same,"ACR50, %","[1]; IL-4R AA, HLA-DRB1 SE copy # 1",(41%)
same,"ACR50, n/N","[1]; IL-4R AA, HLA-DRB1 SE copy # 1",23/56
same,"ACR50, %","[1]; IL-4R AA, HLA-DRB1 SE copy # 2",(30%)
same,"ACR50, n/N","[1]; IL-4R AA, HLA-DRB1 SE copy # 2",7/23
same,"ACR50, %","[1]; IL-4R AG, HLA-DRB1 SE copy # 0",(42%)
same,"ACR50, n/N","[1]; IL-4R AG, HLA-DRB1 SE copy # 0",33/78
same,"ACR50, %","[1]; IL-4R AG, HLA-DRB1 SE copy # 1",(37%)
same,"ACR50, n/N","[1]; IL-4R AG, HLA-DRB1 SE copy # 1",34/92
same,"ACR50, %","[1]; IL-4R AG, HLA-DRB1 SE copy # 2",(38%)
same,"ACR50, n/N","[1]; IL-4R AG, HLA-DRB1 SE copy # 2",12/32
same,"ACR50, %","[1]; IL-4R GG, HLA-DRB1 SE copy # 0",(47%)
same,"ACR50, n/N","[1]; IL-4R GG, HLA-DRB1 SE copy # 0",18/38
same,"ACR50, %","[1]; IL-4R GG, HLA-DRB1 SE copy # 1",(40%)
same,"ACR50, n/N","[1]; IL-4R GG, HLA-DRB1 SE copy # 1",14/35
same,"ACR50, %","[1]; IL-4R GG, HLA-DRB1 SE copy # 2",(50%)
same,"ACR50, n/N","[1]; IL-4R GG, HLA-DRB1 SE copy # 2",1/2
same,"association of FcγRIIb with 26-week response, multiple logistic regression",[1]; ADA+MTX: FcγRIIb-CC with ACR70 and DAS28 remission,failed to show a significant association
same,"association of IL-4R with 26-week response, multiple logistic regression",[1]; IL-4R alone,failed to show a significant association
same,"association of SE copy number with 26-week response, multiple logistic regression","[1]; PBO+MTX: ACR20 and ACR50, ADA+MTX: ACR20/50/70 and DAS28 LDA",significant negative effect
same,"ACR20 Response Rates at Week 26 (title; column head ACR70), % subjects",[1]; IL-4R AA,(13%)
same,"ACR20 Response Rates at Week 26 (title; column head ACR70), n/N subjects",[1]; IL-4R AA,17/130
same,"ACR20 Response Rates at Week 26 (title; column head ACR70), % subjects",[1]; IL-4R AG,(19%)
same,"ACR20 Response Rates at Week 26 (title; column head ACR70), n/N subjects",[1]; IL-4R AG,42/233
same,"ACR20 Response Rates at Week 26 (title; column head ACR70), % subjects",[1]; IL-4R GG,(18%)
same,"ACR20 Response Rates at Week 26 (title; column head ACR70), n/N subjects",[1]; IL-4R GG,16/88
same,"ACR50 response rate, % subjects",[1]; HLA-DRB1 SE 0 copies,(40%)
same,"ACR50 response, n/N subjects",[1]; HLA-DRB1 SE 0 copies,66/167
same,"ACR70 response rate, % subjects",[1]; HLA-DRB1 SE 0 copies,(19%)
same,"ACR70 response, n/N subjects",[1]; HLA-DRB1 SE 0 copies,31/157
same,"ACR50 response rate, % subjects","[1]; HLA-DRB1 SE 0 copies, listed as MTX",40%
same,"ACR20 response rate, % subjects",[1]; [3],(63%)
same,"ACR20 response, n/N subjects",[1]; [3],105/167
same,"ACR20 response rate, % subjects",[1]; HLA-DRB1 SE 1 copy,(54%)
same,"ACR20 response, n/N subjects",[1]; HLA-DRB1 SE 1 copy,115/215
same,"ACR50 response rate, % subjects",[1]; HLA-DRB1 SE 1 copy,(33%)
same,"ACR50 response, n/N subjects",[1]; HLA-DRB1 SE 1 copy,71/215
same,"ACR70 response rate, % subjects",[1]; HLA-DRB1 SE 1 copy,(17%)
same,"ACR70 response, n/N subjects",[1]; HLA-DRB1 SE 1 copy,36/215
same,"ACR50 response rate, % subjects","[1]; HLA-DRB1 SE 1 copy, listed as MTX",33%
same,"ACR20 response rate, % subjects",[1]; HLA-DRB1 SE 2 copies,(52%)
same,"ACR20 response, n/N subjects",[1]; HLA-DRB1 SE 2 copies,36/69
same,"ACR50 response rate, % subjects",[1]; HLA-DRB1 SE 2 copies,(29%)
same,"ACR50 response, n/N subjects",[1]; HLA-DRB1 SE 2 copies,20/69
same,"ACR70 response rate, % subjects",[1]; HLA-DRB1 SE 2 copies,(13%)
same,"ACR70 response, n/N subjects",[1]; HLA-DRB1 SE 2 copies,9/69
same,"ACR50 response rate, % subjects","[1]; HLA-DRB1 SE 2 copies, listed as MTX",29%
same,"ACR50 response rate, % subjects",[1]; IL-4R AA,(35%)
same,"ACR50 response, n/N subjects",[1]; IL-4R AA,45/130
same,"ACR70 response rate, % subjects",[1]; IL-4R AA,(13%)
same,"ACR70 response, n/N subjects",[1]; IL-4R AA,17/130
same,"ACR50 response rate, % subjects",[1]; IL-4R AG,(34%)
same,"ACR50 response, n/N subjects",[1]; IL-4R AG,79/233
same,"ACR70 response rate, % subjects",[1]; IL-4R AG,(19%)
same,"ACR70 response, n/N subjects",[1]; IL-4R AG,42/233
same,"ACR50 response rate, % subjects",[1]; IL-4R GG,(38%)
same,"ACR50 response, n/N subjects",[1]; IL-4R GG,33/88
same,"ACR70 response rate, % subjects",[1]; IL-4R GG,(18%)
same,"ACR70 response, n/N subjects",[1]; IL-4R GG,16/88
same,"LDA DAS28 <3.2, % subjects",[2]; HLA-DRB1 SE 0 copies,(30%)
same,"LDA DAS28 <3.2, n/N subjects",[2]; HLA-DRB1 SE 0 copies,49/167
same,"Remission DAS28 <2.6, % subjects",[2]; HLA-DRB1 SE 0 copies,(17%)
same,"Remission DAS28 <2.6, n/N subjects",[2]; HLA-DRB1 SE 0 copies,28/167
same,"LDA DAS28 <3.2, % subjects",[2]; HLA-DRB1 SE 1 copy,(23%)
same,"LDA DAS28 <3.2, n/N subjects",[2]; HLA-DRB1 SE 1 copy,50/215
same,"Remission DAS28 <2.6, % subjects",[2]; HLA-DRB1 SE 1 copy,(16%)
same,"Remission DAS28 <2.6, n/N subjects",[2]; HLA-DRB1 SE 1 copy,35/215
same,"LDA DAS28 <3.2, % subjects",[2]; HLA-DRB1 SE 2 copies,(24%)
same,"LDA DAS28 <3.2, n/N subjects",[2]; HLA-DRB1 SE 2 copies,16/69
same,"Remission DAS28 <2.6, % subjects",[2]; HLA-DRB1 SE 2 copies,(16%)
same,"Remission DAS28 <2.6, n/N subjects",[2]; HLA-DRB1 SE 2 copies,11/69
same,"LDA DAS28 <3.2, % subjects",[2]; IL-4R AA,(24%)
same,"LDA DAS28 <3.2, n/N subjects",[2]; IL-4R AA,31/130
same,"Remission DAS28 <2.6, % subjects",[2]; IL-4R AA,(14%)
same,"Remission DAS28 <2.6, n/N subjects",[2]; IL-4R AA,18/130
same,"LDA DAS28 <3.2, % subjects",[2]; IL-4R AG,(25%)
same,"LDA DAS28 <3.2, n/N subjects",[2]; IL-4R AG,58/233
same,"Remission DAS28 <2.6, % subjects",[2]; IL-4R AG,(16%)
same,"Remission DAS28 <2.6, n/N subjects",[2]; IL-4R AG,37/233
same,"LDA DAS28 <3.2, % subjects",[2]; IL-4R GG,(30%)
same,"LDA DAS28 <3.2, n/N subjects",[2]; IL-4R GG,26/88
same,"Remission DAS28 <2.6, % subjects",[2]; IL-4R GG,(22%)
same,"Remission DAS28 <2.6, n/N subjects",[2]; IL-4R GG,19/88
